Laboratory results taken from publication PMC9944867, “Mechanistic in vitro studies indicate that the clinical drug–drug interactions between protease inhibitors and rosuvastatin are driven by inhibition of intestinal BCRP and hepatic OATP1B1 with minimal contribution from OATP1B3, NTCP and OAT3” (Pharmacology Research & Perspectives, 2023).
Several values for one entry are separate records, joined by “and”; a condition that tells them apart may be missing. Equal values may be shown once. Read-outs that look alike come from different tables or passages of the source.

How the values were obtained:
BCRP [1] = molecular target: T1, BCRP (Homo sapiens, UniProt Q9UNQ0); test: Caco-2 unidirectional (B-A) BCRP inhibition assay, [3H]-estrone 3-sulfate transport (IC50 determination)
T1 sequence (Q9UNQ0 1-655): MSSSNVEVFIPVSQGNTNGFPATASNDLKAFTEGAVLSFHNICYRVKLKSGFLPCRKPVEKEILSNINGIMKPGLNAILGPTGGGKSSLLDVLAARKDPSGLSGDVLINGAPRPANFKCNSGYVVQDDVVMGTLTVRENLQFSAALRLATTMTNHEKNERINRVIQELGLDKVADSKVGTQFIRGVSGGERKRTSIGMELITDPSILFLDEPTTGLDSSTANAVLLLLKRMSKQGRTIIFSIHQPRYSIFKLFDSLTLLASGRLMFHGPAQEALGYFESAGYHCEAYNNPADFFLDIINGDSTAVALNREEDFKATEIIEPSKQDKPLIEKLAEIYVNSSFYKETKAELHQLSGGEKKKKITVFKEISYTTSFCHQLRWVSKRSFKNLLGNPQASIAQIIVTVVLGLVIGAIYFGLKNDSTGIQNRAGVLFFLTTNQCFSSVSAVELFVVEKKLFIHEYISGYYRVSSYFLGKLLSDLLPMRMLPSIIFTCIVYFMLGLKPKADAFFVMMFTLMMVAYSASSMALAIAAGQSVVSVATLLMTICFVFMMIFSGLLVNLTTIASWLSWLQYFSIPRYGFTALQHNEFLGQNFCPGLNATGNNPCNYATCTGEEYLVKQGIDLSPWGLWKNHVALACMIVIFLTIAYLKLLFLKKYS
Protocol: The methodology used was adapted from the previously validated Caco‐2 unidirectional (basolateral to apical; B‐A) BCRP inhibition assay.[13]
The BCRP inhibition experiments were performed between day 18 to 22 post‐seeding. […] After pre‐incubation, transport buffer was removed and the appropriate donor solutions were added to the basolateral donor compartment. […] Receiver solutions (final DMSO concentration of ≤1 % v/v) in transport buffer containing either the corresponding concentration of test inhibitor or DMSO (vehicle control), and the fluorescent cell monolayer integrity marker lucifer yellow (100 μM), were added to the apical compartments (total volume = 90 μL). Incubations were conducted in triplicate wells per assay condition in a heated incubator at 37°C for 90 min. Following the incubation, the amount (pmol) of [^3H]‐estrone 3‐sulfate appearing in the receiver compartment was determined by sampling (50 μL) into a white walled clear bottomed multiwell plate, to which scintillation fluid (200 μL) was added, and then samples counted on a Microbeta2 liquid scintillation counter (PerkinElmer). The quantified amount (derived from disintegrations per minute; DPM) of [^3H]‐estrone 3‐sulfate was subsequently converted to concentration (pmol/mL) and used to calculate apparent permeability (Papp), as described previously.[18]

OATP1B1 = molecular target: T2, OATP1B1 (Homo sapiens, UniProt Q9Y6L6); test: OATP1B1 inhibition in transporter-expressing HEK293 cells, [3H]-estradiol 17β-D-glucuronide uptake (IC50 determination); conditions: human, HEK293 cells expressing OATP1B1 (with vector control cells), pH 7.4, probe [3H]-estradiol 17β-D-glucuronide (0.02 μM), IC50, determined values from different occasions (OATP1B1), OATP1B1-mediated transport of [3H]-estradiol 17β-D-glucuronide (0.02 μM), HEK293; single occasion
T2 sequence (Q9Y6L6 1-691): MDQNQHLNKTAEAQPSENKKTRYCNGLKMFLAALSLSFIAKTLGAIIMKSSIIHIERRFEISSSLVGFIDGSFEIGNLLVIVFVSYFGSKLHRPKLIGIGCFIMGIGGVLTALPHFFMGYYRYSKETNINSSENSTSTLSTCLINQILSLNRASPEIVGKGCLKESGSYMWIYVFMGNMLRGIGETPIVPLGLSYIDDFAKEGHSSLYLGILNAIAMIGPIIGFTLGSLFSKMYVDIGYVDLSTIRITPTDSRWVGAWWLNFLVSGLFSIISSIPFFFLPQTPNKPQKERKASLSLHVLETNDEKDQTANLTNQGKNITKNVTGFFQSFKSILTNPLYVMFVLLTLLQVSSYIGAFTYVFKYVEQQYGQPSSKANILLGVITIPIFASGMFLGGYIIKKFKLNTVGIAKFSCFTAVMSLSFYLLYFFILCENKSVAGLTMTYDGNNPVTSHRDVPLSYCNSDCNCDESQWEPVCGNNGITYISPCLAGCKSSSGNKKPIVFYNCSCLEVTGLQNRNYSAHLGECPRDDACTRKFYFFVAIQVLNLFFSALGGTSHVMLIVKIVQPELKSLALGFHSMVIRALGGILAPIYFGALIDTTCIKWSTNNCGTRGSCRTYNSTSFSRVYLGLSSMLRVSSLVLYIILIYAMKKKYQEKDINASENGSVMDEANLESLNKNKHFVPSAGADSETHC
Protocol: OATP1B1, OATP1B3, NTCP and vector control cell lines were cultured and subsequent transporter assays conducted as described above using the same transporter‐specific probe substrates and incubation times. For OATP1B1, the probe substrate was [^3H]‐estradiol 17β‐D‐glucuronide (0.02 μM) incubated for 2 min, with rifamycin SV (100 μM) as positive control inhibitor. For IC50 determinations, the only difference to the method performed above was that the 15‐min pre‐incubation step contained a range of six concentrations of protease inhibitor drug, and subsequent incubations were conducted with the same six concentration levels of drug rather than with a single concentration.

human OAT3 (SLC22A8) = molecular target: T3, human OAT3 (SLC22A8) (Homo sapiens, UniProt Q8TCC7); test: OAT3 single concentration inhibition screen in HEK293 cells; assay type: cell-based; conditions: ≥10x unbound [Cmax]: atazanavir 15 μM, darunavir 10 μM, lopinavir 3 μM, ritonavir 0.1 μM; probe 1 μM
T3 construct: host or cells: HEK293 TransportoCells
T3 sequence (Q8TCC7 1-542): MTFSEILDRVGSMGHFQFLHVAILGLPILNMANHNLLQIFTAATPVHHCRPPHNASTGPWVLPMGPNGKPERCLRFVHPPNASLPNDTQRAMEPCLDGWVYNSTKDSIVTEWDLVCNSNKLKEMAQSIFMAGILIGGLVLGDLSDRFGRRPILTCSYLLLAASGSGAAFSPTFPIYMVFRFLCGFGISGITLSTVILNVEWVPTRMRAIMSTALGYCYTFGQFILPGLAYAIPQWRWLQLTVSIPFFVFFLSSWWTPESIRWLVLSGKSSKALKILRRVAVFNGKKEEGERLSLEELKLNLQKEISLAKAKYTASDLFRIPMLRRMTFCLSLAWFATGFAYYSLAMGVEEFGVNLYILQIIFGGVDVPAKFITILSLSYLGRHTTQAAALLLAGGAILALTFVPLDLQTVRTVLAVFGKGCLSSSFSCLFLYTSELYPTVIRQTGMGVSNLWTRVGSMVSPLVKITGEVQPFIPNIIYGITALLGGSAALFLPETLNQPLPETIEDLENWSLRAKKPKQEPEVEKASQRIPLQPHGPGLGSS

BCRP [2] = molecular target: T1, BCRP; conditions: probe substrate pheophorbide A; ref Weiss et al.[15]; cited from earlier work
NTCP = tested on: NTCP; parameters: method as in Vildhede et al.[33]; conditions: ref Vildhede et al.[33], cited from earlier work
[3] = IC50 mean (BCRP), BCRP-mediated B-A transport of [3H]-estrone 3-sulfate (1 μM), Caco-2, mean (±SD) of occasions, IC50 equates to Ki

| IC50 at 2 min (OATP1B1) [µM] | SMILES | IC50 (BCRP [1]) | IC50 (BCRP [1]; [3]) [µM] | Inhibition of OAT3-mediated [3H]-estrone 3-sulfate transport, single concentration screen (human OAT3 (SLC22A8)) | Published IC50/Ki (BCRP) (BCRP [2]) | Inhibition of NTCP, published (NTCP; tested up to 40 μM) | Inhibition of NTCP, published (NTCP; tested up to 10 μM) |
| --- | --- | --- | --- | --- | --- | --- | --- |
| 0.928 | COC(=O)N[C@H](C(=O)N[C@@H](Cc1ccccc1)[C@@H](O)CN(Cc1ccc(-c2ccccn2)cc1)NC(=O)[C@@H](NC(=O)OC)C(C)(C)C)C(C)(C)C [atazanavir] | 49.8 µM and 30.3 µM and 51.5 µM and 37.1 µM | 42.2 | neither atazanavir, darunavir, lopinavir nor ritonavir inhibited OAT3 transport | 69.1 (pheophorbide A) μM | no inhibition |  |
|  | Cc1cccc(C)c1OCC(=O)N[C@@H](Cc1ccccc1)[C@@H](O)C[C@H](Cc1ccccc1)NC(=O)[C@H](C(C)C)N1CCCNC1=O [lopinavir] | 12.7 µM and 18.3 µM and 15.6 µM | 15.5 | neither atazanavir, darunavir, lopinavir nor ritonavir inhibited OAT3 transport |  |  | no inhibition |
